Patent US7314958B2, “Phenylbenzamides” (Bayer CropScience AG, priority 2002, dated 2008)

Legend:
[1] = tested on: Sphaerotheca fuliginea; assay: Sphaerotheca test (cucumber)/protective; assay type: in vivo; conditions: Podosphaera fuliginea, 168 h; comparative experiment; application rate 500 ppm; read-out: Example A Spaerotheca test (cucumber) protective efficacy in %
Protocol: Sphaerotheca Test (Cucumber)/Protective
• Solvents: 24.5 parts by weight of acetone 24.5 parts by weight of dimethylacetamide • Emulsifier: 1 part by weight of alkylaryl polyglycol ether
(§1) To produce a suitable preparation of active compound, 1 part by weight of active compound is mixed with the stated amounts of solvent and emulsifier, and the concentrate is diluted with water to the desired concentration.
To test for protective activity, young plants are sprayed with the preparation of active compound at the stated application rate. After the spray coating has dried on, the plants are inoculated with an aqueous spore suspension of Sphaerotheca fuliginea. The plants are then placed in a greenhouse at about 23° C. and a relative atmospheric humidity of about 70%.
Evaluation is carried out 7 days after the inoculation. 0% means an efficacy which corresponds to that of the control, whereas an efficacy of 100% means that no infection is observed.
The compounds were tested in comparative experiments according to use examples A [Spaerotheca test (cucumber)/protective], D [Alternaria test (tomato)/protective] and E [Erysiphe test (barley)/protective].
In each case, the application rate was 500 ppm.

[2] = tested on: Alternaria solani; assay: Alternaria test (tomato)/protective; assay type: in vivo; conditions: 168 h, comparative experiment, application rate 500 ppm, read-out: Example D Alternaria test (tomato) protective efficacy in %
Protocol: Alternaria Test (Tomato)/Protective • Solvent: 49 parts by weight of N,N-dimethylformamide • Emulsifier: 1 part by weight of alkylaryl polyglycol ether To produce a suitable preparation of active compound, 1 part by weight of active compound is mixed with the stated amounts of solvent and emulsifier, and the concentrate is diluted with water to the desired concentration. To test for protective activity, young tomato plants are sprayed with the preparation of active compound at the stated application rate. 1 day after the treatment, the plants are inoculated with an aqueous spore suspension of Alternaria solani and then remain at 100% relative atmospheric humidity for 24 hours. The plants are then kept at about 96% relative atmospheric humidity and a temperature of 20° C. Evaluation is carried out 7 days after the inoculation. 0% means an efficacy which corresponds to that of the control, whereas an efficacy of 100% means that no infection is observed. The compounds were tested in comparative experiments according to use examples A [Spaerotheca test (cucumber)/protective], D [Alternaria test (tomato)/protective] and E [Erysiphe test (barley)/protective]. In each case, the application rate was 500 ppm.

[3] = tested on: Erysiphe graminis f. sp. hordei; assay: Erysiphe test (barley)/protective; assay type: in vivo; conditions: Blumeria graminis, 168 h; comparative experiment; application rate 500 ppm; read-out: Example E Erysiphe test (barley) protective efficacy in %
Protocol: Erysiphe Test (Barley)/Protective • Solvent: 49 parts by weight of N,N-dimethylformamide • Emulsifier: 1 part by weight of alkylaryl polyglycol ether To produce a suitable preparation of active compound, 1 part by weight of active compound is mixed with the stated amounts of solvent and emulsifier, and the concentrate is diluted with water to the desired concentration. To test for protective activity, young cereal plants are sprayed with the preparation of active compound at the stated application rate. 1 day after the treatment, the plants are inoculated with spores of Erysiphe graminis f. sp. hordei. The plants are then placed in a greenhouse at 70% relative atmospheric humidity and a temperature of 18° C. Evaluation is carried out 7 days after the inoculation. 0% means an efficacy which corresponds to that of the control, whereas an efficacy of 100% means that no infection is observed. The compounds were tested in comparative experiments according to use examples A [Spaerotheca test (cucumber)/protective], D [Alternaria test (tomato)/protective] and E [Erysiphe test (barley)/protective]. In each case, the application rate was 500 ppm.

[4] = tested on: Puccinia recondita; assay: Puccinia test (wheat)/protective; assay type: in vivo; conditions: 240 h, protective, application rate 500 g/ha, evaluation 10 days after inoculation, read-out: Efficacy in %
Protocol: Puccinia Test (Wheat)/Protective • Solvent: 25 parts by weight of N,N-dimethylacetamide • Emulsifier: 0.6 part by weight of alkylaryl polyglycol ether To produce a suitable preparation of active compound, 1 part by weight of active compound is mixed with the stated amounts of solvent and emulsifier, and the concentrate is diluted with water to the desired concentration. To test for protective activity, young plants are inoculated with a spore suspension of Puccinia recondita in a 0.1% strength aqueous agar solution. After the spray coating has dried on, the plants are sprayed with the preparation of active compound at the stated application rate. The plants remain in an incubation cabin at 20° C. and 100% relative atmospheric humidity for 24 hours. The plants are then placed in a greenhouse at a temperature of about 20° C. and a relative atmospheric humidity of 80% to promote the development of rust pustules. Evaluation is carried out 10 days after the inoculation. 0% means an efficacy which corresponds to that of the control, whereas an efficacy of 100% means that no infection is observed.

[5] = logP determination by HPLC, reversed-phase column (C 18), acidic range; assay type: physicochemical; conditions: pH 2.3, 0.1% aqueous phosphoric acid/acetonitrile, 43° C.
Protocol: The logP values given in the Preparation Examples were determined in accordance with EEC Directive 79/831 Annex V.A8 by HPLC (High Performance Liquid Chromatography) using a reversed-phase column (C 18). Temperature: 43° C. Mobile phases for the determination in the acidic range: 0.1% aqueous phosphoric acid, acetonitrile; linear gradient from 10% acetonitrile to 90% acetonitrile. Calibration was carried out using unbranched alkan-2-ones (having 3 to 16 carbon atoms) with known logP values (determination of the logP values by the retention times using linear interpolation between two successive […]).

[6] = tested on: Venturia inaequalis; assay: Venturia test (apple)/protective; assay type: in vivo; conditions: protective, application rate 100 g/ha, evaluation 10 days after inoculation
Protocol: Venturia Test (Apple)/Protective
• Solvents: 24.5 parts by weight of acetone 24.5 parts by weight of dimethylacetamide • Emulsifier: 1.0 part by weight of alkylaryl polyglycol ether
as §1
To test for protective activity, young plants are sprayed with the preparation of active compound at the stated application rate. After the spray coating has dried on, the plants are inoculated with an aqueous conidia suspension of the apple scab pathogen Venturia inaequalis and then remain in an incubation cabin at about 20° C. and 100% relative atmospheric humidity for 1 day.
The plants are then placed in a greenhouse at about 21° C. and a relative atmospheric humidity of about 90%.
Evaluation is carried out 10 days after the inoculation. 0% means an efficacy which corresponds to that of the control, whilst an efficacy of 100% means that no infection is observed.

[7] = tested on: Botrytis cinerea; assay: Botrytis test (bean)/protective; assay type: in vivo; conditions: protective, application rate 500 g/ha, evaluation 2 days after inoculation
Protocol: Botrytis Test (Bean)/Protective • Solvent: 49 parts by weight of N,N-dimethylformamide • Emulsifier: 1 part by weight of alkylaryl polyglycol ether To produce a suitable preparation of active compound, 1 part by weight of active compound is mixed with the stated amounts of solvent and emulsifier, and the concentrate is diluted with water to the desired concentration. To test for protective activity, young plants are sprayed with the preparation of active compound at the stated application rate. After the spray coating has dried on, 2 small pieces of agar colonized by Botrytis cinerea are placed onto each leaf. The inoculated plants are placed in a dark chamber at about 20° C. and 100% relative atmospheric humidity. 2 days after the inoculation, the size of the infected areas on the leaves is evaluated. 0% means an efficacy which corresponds to that of the control, whereas an efficacy of 100% means that no infection is observed.

[8] = tested on: Sphaerotheca fuliginea; assay: Sphaerotheca test (cucumber)/protective; assay type: in vivo; conditions: protective, application rate 100 g/ha, evaluation 7 days after inoculation

CCCCc1ccccc1NC(=O)c1ccccc1I [No.14.3(p. 42)]
pest or weed control at 500 ppm [1]: 0% | pest or weed control at 500 ppm [2]: 0% | pest or weed control at 500 ppm [3]: 0%

CCC(C)c1ccccc1NC(=O)c1ccccc1I (centres unmarked) [No.14.4(p. 42)]
pest or weed control at 500 ppm [1]: 10% | pest or weed control at 500 ppm [2]: 10% | pest or weed control at 500 ppm [3]: 20%

CC(CC(C)(C)C)c1ccccc1NC(=O)c1ccccc1I (centres unmarked) [drawing 28]
pest or weed control at 500 g/ha [4]: 100%

CC(CC(C)(C)C)c1ccccc1NC(=O)c1ccccc1I (centres unmarked) [Example 9, 2-iodo-N-[2-(1,3,3-trimethylbutyl)phenyl]benzamide]
chromatographic logP [5]: 4.4

CCC(C)(C)CC(C)c1ccccc1NC(=O)c1ccccc1Cl (centres unmarked) [Example 12, (2-chlorophenyl)-N-[2-(1,3,3-trimethylpentyl)phenyl]carboxamide]
chromatographic logP [5]: 4.6

CC(C)CC(C)c1ccccc1NC(=O)c1ccccc1I (centres unmarked) [drawing 13]
Efficacy in % [6]: 100%

CC(CC(C)(C)C)c1ccccc1NC(=O)c1ccccc1C(F)(F)F (centres unmarked) [drawing 27]
pest or weed control at 500 g/ha [4]: 100%

CC(CC(C)(C)C)c1ccccc1NC(=O)c1ccccc1C(F)(F)F (centres unmarked) [Example 6, 2-(trifluoromethyl)-N-[2-(1,3,3-trimethylbutyl)phenyl]benzamide]
chromatographic logP [5]: 4.36

CC(C)CC(C)c1ccccc1NC(=O)c1ccccc1C(F)(F)F (centres unmarked) [drawing 14]
Efficacy in % [7]: 93%

CC(C)CC(C)c1ccccc1NC(=O)c1ccccc1I (centres unmarked) [drawing 21]
pest or weed control at 500 g/ha [4]: 100%

CC(C)CC(C)c1ccccc1NC(=O)c1ccccc1Cl (centres unmarked) [drawing 23]
pest or weed control at 500 g/ha [4]: 100%

CCC(C)c1ccccc1NC(=O)c1ccccc1C(F)(F)F (centres unmarked) [No. 6.4(p. 24)]
pest or weed control at 500 ppm [1]: 30% | pest or weed control at 500 ppm [2]: 30% | pest or weed control at 500 ppm [3]: 0%

CC(C)CC(C)c1ccccc1NC(=O)c1ccccc1Cl (centres unmarked) [Example 4, N-[2-(1,3-dimethylbutyl)phenyl]-2-chlorobenzamide]
chromatographic logP [5]: 3.98

CCCCCCc1ccccc1NC(=O)c1ccccc1I [No.14.9(p. 42)]
pest or weed control at 500 ppm [1]: 0% | pest or weed control at 500 ppm [2]: 0% | pest or weed control at 500 ppm [3]: 0%

CCCCCCc1ccccc1NC(=O)c1ccccc1C(F)(F)F [No. 6.9(p. 24)]
pest or weed control at 500 ppm [1]: 0% | pest or weed control at 500 ppm [2]: 0% | pest or weed control at 500 ppm [3]: 0%

CCC(C)(C)CC(C)c1ccccc1NC(=O)c1ccccc1I (centres unmarked) [Example 10, (2-iodophenyl)-N-[2-(1,3,3-trimethylpentyl)phenyl]carboxamide]
chromatographic logP [5]: 4.71

CC(C)CC(C)c1ccccc1NC(=O)c1ccccc1C(F)(F)F (centres unmarked) [Example 2, N-[2-(1,3-dimethylbutyl)phenyl]-2-(trifluoromethyl)benzamide]
chromatographic logP [5]: 4.09 | pest or weed control at 500 ppm [1]: 100% | pest or weed control at 500 ppm [2]: 95% | pest or weed control at 500 ppm [3]: 90%

CCC(C)(C)CC(C)c1ccccc1NC(=O)c1ccccc1C(F)(F)F (centres unmarked) [drawing 26]
pest or weed control at 500 g/ha [4]: 100%

CC(CC(C)(C)C)c1ccccc1NC(=O)c1ccccc1Cl (centres unmarked) [Example 7, 2-chloro-N-[2-(1,3,3-trimethylbutyl)phenyl]benzamide]
chromatographic logP [5]: 4.25

CC(C)CC(C)c1ccccc1NC(=O)c1ccccc1C(F)(F)F (centres unmarked) [drawing 12]
Efficacy in % [6]: 100%

CC(C)CC(C)c1ccccc1NC(=O)c1ccccc1Br (centres unmarked) [drawing 22]
pest or weed control at 500 g/ha [4]: 100%

CC(C)CC(C)c1ccccc1NC(=O)c1ccccc1Br (centres unmarked) [Example 5, N-[2-(1,3-dimethylbutyl)phenyl]-2-bromobenzamide]
chromatographic logP [5]: 4.01 | pest or weed control at 500 ppm [1]: 95% | pest or weed control at 500 ppm [2]: 90% | pest or weed control at 500 ppm [3]: 30%

CC(CC(C)(C)C)c1ccccc1NC(=O)c1ccccc1Br (centres unmarked) [drawing 24]
pest or weed control at 500 g/ha [4]: 100%

CC(C)CC(C)c1ccccc1NC(=O)c1ccccc1C(F)(F)F (centres unmarked) [drawing 10]
Efficacy in % [8]: 100%

CC(CC(C)(C)C)c1ccccc1NC(=O)c1ccccc1Cl (centres unmarked) [drawing 25]
pest or weed control at 500 g/ha [4]: 100%

CCCCc1ccccc1NC(=O)c1ccccc1C(F)(F)F [No. 6.3(p. 24)]
pest or weed control at 500 ppm [1]: 10% | pest or weed control at 500 ppm [2]: 0% | pest or weed control at 500 ppm [3]: 10%

CCC(C)(C)CC(C)c1ccccc1NC(=O)c1ccccc1Br (centres unmarked) [Example 13, (2-bromophenyl)-N-[2-(1,3,3-trimethylpentyl)phenyl]carboxamide]
chromatographic logP [5]: 4.63

CCC(C)(C)CC(C)c1ccccc1NC(=O)c1ccccc1C(F)(F)F (centres unmarked) [Example 11, [2-(trifluoromethyl)phenyl]-N-[2-(1,3,3-trimethylpentyl)phenyl]carboxamide]
chromatographic logP [5]: 4.68

CC(C)CC(C)c1ccccc1NC(=O)c1ccccc1C(F)(F)F (centres unmarked) [drawing 20]
pest or weed control at 500 g/ha [4]: 100%

CC(C)CC(C)c1ccccc1NC(=O)c1ccccc1I (centres unmarked) [drawing 11]
Efficacy in % [8]: 100%

CC(CC(C)(C)C)c1ccccc1NC(=O)c1ccccc1Br (centres unmarked) [Example 8, 2-bromo-N-[2-(1,3,3-trimethylbutyl)phenyl]benzamide]
chromatographic logP [5]: 4.29

CC(C)CC(C)c1ccccc1NC(=O)c1ccccc1I (centres unmarked) [Example 3, N-[2-(1,3-dimethylbutyl)phenyl]-2-iodobenzamide]
chromatographic logP [5]: 4.12 | pest or weed control at 500 ppm [1]: 100% | pest or weed control at 500 ppm [2]: 95% | pest or weed control at 500 ppm [3]: 95%
